{
  "source": "patent US20240360143A1",
  "about": "“[1,2,4]TRIAZOLO[4,3-A]PYRIMIDIN-7(8H)-ONE AS MITOCHONDRIAL PYRUVATE CARRIER INHIBITORS FOR USE IN THE TREATMENT OF CANCER” (MPC THERAPEUTICS SA, priority 2021, published 2024)",
  "key": {"[1]": {"biological_target": "T1, mitochondrial pyruvate carrier (MPC) (Homo sapiens, UniProt O95563+Q9Y5U8)", "T1 sequence (Q9Y5U8 1-109)": "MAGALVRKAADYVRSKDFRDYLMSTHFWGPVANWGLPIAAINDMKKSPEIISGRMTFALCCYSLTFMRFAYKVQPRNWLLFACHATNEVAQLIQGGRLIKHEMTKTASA", "T1 sequence (O95563 1-127)": "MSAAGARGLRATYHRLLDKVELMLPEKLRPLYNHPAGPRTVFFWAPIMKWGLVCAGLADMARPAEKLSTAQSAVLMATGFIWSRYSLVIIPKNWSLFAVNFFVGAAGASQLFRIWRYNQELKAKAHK", "test": "Seahorse Xfe24 pyruvate-dependent OCR in HeLa cells", "type": "cell-based", "conditions": "pyruvate-dependent OCR in presence of fCCP", "protocol": "The inhibition of mitochondrial pyruvate carrier (MPC) by compounds of the invention have been tested as follows and their inhibitory activity was expressed as IC50s values.\nCells are plated in the customized Seahorse plates. For HeLa cells, seeding is at 4×10^4 cells/well in […] DMEM, 10% FBS, 1% pen/strep/glutamine. 3 wells are left blank (medium alone) for internal calibration. The assay cartridge is hydrated overnight at 37° C. in 1 ml/well XF Calibrant Solution.\nSince 50 μl of compound of the invention will be injected into 450 μl washed cells, compounds are made up in assay medium at 10× the final desired concentration\nFor dose response analyses, compounds are tested at final concentrations 30, 5, 0.83, 0.14, 0.023 μM (1:6 serial dilutions from […])\nPositive control: […] (the parent hit compound which gave rise to the actual series)\nNegative control: Assay medium alone.\nThe seahorse reagent plate is prepared as follows and transfered to the Xfe24 analyser for the calibration step:\nThe medium is almost completely removed from the well without allowing cells to dry Cells are washed twice with 300 μl Assay Medium. 450 μl fresh Assay Medium is added to each well. The plate is transferred to the Xfe24 analyser for measurement of pyruvate-dependent OCR. All values are normalized to the initial basal respiration rate in each well which is measured prior to addition of compounds and designated as 100%. IC50 determination is based on the average of the 3 measurements made in the presence of fCCP, taking 30 μM parent hit compound as maximal inhibition and PBS/Ca/Mg as zero inhibition."}, "[2]": {"tested_on": "B16F10 tumors modified to express HER2", "test": "Adoptive cell transfer of HER2-CAR T cells produced with compound, B16 melanoma expressing HER2", "type": "in vivo, mouse", "protocol": "For each retroviral preparation, 8×10^6 Phoenix ECO cells (ATCC, CRL-3214) were plated in a T150 tissue culture flask in RPMI medium supplemented with 10% FCS, 10 mM HEPES and 50 U/ml Penicillin-Streptomycin. On the next day, cells were transfected with 21 μg of the retroviral construct with Turbofect transfection reagent (Thermo Fischer Scientific), according to the manufacturer protocol. The medium was changed daily and collected at 48 h and 72 h post transfection. 48 h and 72 h virus supernatants were pooled and sedimented at 22′000 rcf for 2 h at 4° C. Finally, retrovirus pellets were resuspended in 2 ml of full RPMI medium and divided in 8 aliquots of 250 μl each, which were snap-frozen on dry ice and stored at −80° C.\nSpleens from wild type CD45.1.2 mice were smashed on a 70 μm cell strainer. CD8 T cells were purified using the Easy SepTM Mouse CD8+ T Cell Isolation Kit (StemCell) according to the manufacturer protocol. 0.5×10^6 CD8 T cells were plated in 48 well plates in 0.5 ml of complete RPMI 1640 medium supplemented with 10% FCS, antibiotics and 50 IU/ml of recombinant human IL-2, and exposed to either DMSO or 20 μM Compound 45. Mouse T-cells were activated with Activator CD3/CD28 Dynabeads (Gibco) at a ratio of 2 beads per cell. Retroviral infection was conducted at 37° C. for 24 h. Untreated 48 well plates were coated for 24 h with 20 μg/ml of recombinant human fibronectin (Takara Clontech) at 4° C., followed by PBS 2% BSA for 30 min at RT and finally washed with PBS. One aliquot of concentrated retroviruses was plated in each fibronectin-coated 48 well plates and centrifuged for 90 min at 2′000 rcf and 32° C. Then, 0.5×10^6 of 24 h-activated CD8 T cells were added on top of the viruses and spun for 10 min at 400 rcf and 32° C. On day 3, the medium was replaced with 10 IU/ml recombinant human IL-2, 10 ng/ml recombinant human IL-7 and 10 ng/ml recombinant human IL-15, containing either DMSO or 20 μM Compound 45. Cells were then split every second day.\nCD45.2 C57BL/6 mice were engrafted subcutaneously with 4×10^5 B16F10 tumors modified to express HER2. Six days later, mice were lymphodepleted with 100 mg/kg cyclophosphamide (Sigma Aldrich, C7397) injected i.p., and homogeneous groups were constituted with regard to tumor volume. T cells (5×10^6) were adoptively transferred i.v. on the next day. Tumor volumes were measured three times a week with a caliper and calculated using the formula: V=π×[d2×D]/6, where d is the minor tumor axis and D is the major tumor axis. Tumors were collected and separated from skin. Single cell suspensions were obtained with the Mouse Tumor Dissociation Kit (Miltenyi, 130-096-730) according to the manufacturer protocol. Spleen and draining lymph node were smashed on a 70 μm cell strainer. Single cell suspensions were stained with antibodies before flow cytometry analysis.\nPolyclonal CD8 T cells from wild type mice were activated in the presence of DMSO or 20 μM Compound 45 and then retrovirally transduced with a HER2-CAR construct (FIG. 4A). […] No difference in percentages of memory precursor effector T cells could be detected (FIG. 4F) and TCF1-expressing T cells (FIG. 4G). […] More tumor-infiltrating Compound 45-treated CAR T cells expressed TCF1 (FIG. 5H). […] Finally, fewer Compound 45-treated CAR T cells were expressing the inhibitory molecules PD1 and TIM3, indicating a less exhausted phenotype (FIG. 5K)."}},
  "data": [
    {"smiles": "O=c1cc(Cc2ccccc2)n2c(SCc3c(F)cccc3Cl)nnc2[nH]1", "note": "[Compound 45, 5-benzyl-3-[(2-chloro-6-fluorobenzyl)sulfanyl][1,2,4]triazolo[4,3-a]pyrimidin-7 (8H)-one]", "values": [
      {"measurement": "IC50", "setting": "[1]", "result": 0.064, "unit": "µM"},
      {"measurement": "tumor growth", "setting": "[2]; HER2CAR T cells produced with 20 μM compound, 5×10^6 cells i.v. (FIGS. 4B and 4C)", "result": "significantly suppress"},
      {"measurement": "number of CAR T cells in blood", "setting": "[2]; blood 12 days after ACT (FIG. 4D)", "result": "no difference"},
      {"measurement": "percentage of HER2CAR T cells forming short-lived effector T cells", "setting": "[2]; blood 12 days after ACT (FIG. 4E)", "result": "significantly reduced"},
      {"measurement": "percentages of memory precursor effector T cells", "setting": "[2]; blood 12 days after ACT (FIG. 4F)", "result": "No difference"},
      {"measurement": "percentages of TCF1-expressing T cells", "setting": "[2]; blood 12 days after ACT (FIG. 4G)", "result": "No difference"},
      {"measurement": "central memory T cell differentiation", "setting": "[2]; draining lymph node (FIG. 5B)", "result": "Neither in the draining lymph node nor in the spleen could be observed a difference"},
      {"measurement": "HER2CAR T cells expressing TCF1", "setting": "[2]; draining lymph node (FIG. 5C)", "result": "Neither in the draining lymph node nor in the spleen could be observed a difference"},
      {"measurement": "engraftment of HER2CAR T cells in the spleen", "setting": "[2]; spleen (FIG. 5D)", "result": "increase was significant"},
      {"measurement": "central memory T cell differentiation", "setting": "[2]; spleen (FIG. 5E)", "result": "Neither in the draining lymph node nor in the spleen could be observed a difference"},
      {"measurement": "HER2CAR T cells expressing TCF1", "setting": "[2]; spleen (FIG. 5F)", "result": "Neither in the draining lymph node nor in the spleen could be observed a difference"},
      {"measurement": "CAR T cells in tumors", "setting": "[2]; tumor (FIG. 5G)", "result": "significantly more"},
      {"measurement": "tumor-infiltrating CAR T cells expressing TCF1", "setting": "[2]; tumor (FIG. 5H)", "result": "More"},
      {"measurement": "CAR T cells expressing the inhibitory molecules PD1 and TIM3", "setting": "[2]; tumor (FIG. 5K)", "result": "fewer"},
      {"measurement": "progenitor exhausted T cells (TCF1-positive)", "setting": "[2]; tumor, co-expression of TCF1 with PD1 (FIG. 5I)", "result": "more"},
      {"measurement": "terminally differentiated exhausted T cells (TCF1-negative)", "setting": "[2]; tumor, co-expression of TCF1 with PD1 (FIG. 5J)", "result": "less"},
      {"measurement": "engraftment of HER2CAR T cells in the tumor-draining lymph nodes", "setting": "[2]; tumor-draining lymph nodes (FIG. 5A)", "result": "trend towards an increased engraftment"}
    ]}
  ]
}
